Among the data in the supplement of paper PMC10307832 are relative viability values, retold here.

Common to all, as to experiment: relative viability (nuclei count vs DMSO), 5 days (fraction); higher = more cells survive
Compound in one assay: Nc1cccc2c1CN(C1CCC(=O)NC1=O)C2=O [Lenalidomide]
An outline of the steps: (§1)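 Lung cancer cell lines were seeded into 1536-well plates, kept overnight at 37 °C and pinned with five library-drug doses (not always all listed) spaced by √10. After 5 days, nuclei were Hoechst-stained, imaged at 4× and counted with MetaXpress. Viability is treated-well nuclei over vehicle-well nuclei, taken as a median across plates. Plates needed control CV below 25% and at least one doubling.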

Compound in the next assay: Cc1cn(-c2cc(NC(=O)c3ccc(C)c(Nc4nccc(-c5cccnc5)n4)c3)cc(C(F)(F)F)c2)cn1 [Nilotinib]
An outline of the steps: as §1

Compound in the next assay: CC1=CSC(=NC2CCCCC2)N1/N=C/C3=C(C(=C(C=C3)O)O)O [MIM1]
The method in brief: as §1

Compound in another assay: CN1CCN(CCOc2cc(OC3CCOCC3)c3c(Nc4c(Cl)ccc5c4OCO5)ncnc3c2)CC1 [Saracatinib]
The method in brief: as §1

Compound in the next assay: CCNC(=O)c1noc(-c2cc(C(C)C)c(O)cc2O)c1-c1ccc(CN2CCOCC2)cc1 [Luminespib]
An outline of the steps: as §1

In the case of NCI-H2170, the relative viability in the assay with Lenalidomide (0.253 µM) turned out to be 1; with Lenalidomide (0.8 µM), 0.979; in the assay with Lenalidomide (2.53 µM), 1.01; with Lenalidomide (8 µM), 0.782; with Nilotinib (0.001 µM), 0.864; with Nilotinib (0.003162 µM), 1.16. Further, the relative viability in the assay with Nilotinib (0.01 µM) is 1.2; with Nilotinib (0.03162 µM), 0.875; with Nilotinib (0.1 µM), 0.952; with MIM1 (0.2 µM), 0.943; with MIM1 (0.6325 µM), 0.907; in the assay with MIM1 (2 µM), 1.02. Moreover, the relative viability turned out to be 0.603 with MIM1 (6.325 µM); 0.28 in the assay with MIM1 (20 µM); 1 with Saracatinib (0.02 µM); 0.926 with Saracatinib (0.2 µM); 0.986 with Saracatinib (0.6325 µM); 0.689 in the assay with Saracatinib (2 µM). Besides, the relative viability with Luminespib (0.002 µM) was 0.974; with Luminespib (0.006325 µM), 0.945; with Luminespib (0.01 µM, anchor plate) it was 0.732; with Luminespib (0.02 µM), 0.586; with Luminespib (0.06325 µM) it was 0.793; with Luminespib (0.2 µM), 0.179.
Turning to NCI-H2342, the relative viability with Lenalidomide (0.253 µM) was found to be 1.01; with Lenalidomide (0.8 µM), 0.952; in the assay with Lenalidomide (2.53 µM), 1.04; in the assay with Lenalidomide (8 µM), 0.733; with Nilotinib (0.001 µM), 0.868; with Nilotinib (0.003162 µM), 0.928. In addition, the relative viability with Nilotinib (0.01 µM) is 1.02; in the assay with Nilotinib (0.03162 µM) it was 0.831; with Nilotinib (0.1 µM), 1.02; with MIM1 (0.2 µM) it was 0.944; with MIM1 (0.6325 µM) it was 1; in the assay with MIM1 (2 µM), 1.01. The relative viability is 0.803 with MIM1 (6.325 µM); 1.03 in the assay with MIM1 (20 µM); 1.07 in the assay with Saracatinib (0.02 µM); 0.947 with Saracatinib (0.2 µM); 1.14 with Saracatinib (0.6325 µM); 0.945 with Saracatinib (2 µM). The relative viability came out at 0.974 in the assay with Luminespib (0.002 µM); 0.955 with Luminespib (0.006325 µM); 0.76 in the assay with Luminespib (0.01 µM, anchor plate); 0.619 with Luminespib (0.02 µM); 0.774 in the assay with Luminespib (0.06325 µM); 0.592 with Luminespib (0.2 µM).
With NCI-H1395, the relative viability with Lenalidomide (0.253 µM) came out at 0.997; with Lenalidomide (2.53 µM), 1.02; with Lenalidomide (8 µM) it was 0.846; with Nilotinib (0.001 µM), 0.957; with Nilotinib (0.003162 µM), 0.7; with Nilotinib (0.01 µM) it was 0.874. Further, the relative viability is 0.803 in the assay with Nilotinib (0.03162 µM); 0.542 in the assay with Nilotinib (0.1 µM); 0.961 with MIM1 (0.2 µM); 0.791 with MIM1 (0.6325 µM); 0.873 with MIM1 (2 µM); 0.675 with MIM1 (6.325 µM). Moreover, the relative viability amounted to 0.345 with MIM1 (20 µM); 0.994 with Saracatinib (0.02 µM); 0.828 with Saracatinib (0.2 µM); 0.91 with Saracatinib (0.6325 µM); 0.799 with Saracatinib (2 µM); 1.07 with Luminespib (0.002 µM). Besides, the relative viability with Luminespib (0.006325 µM) was found to be 0.861; with Luminespib (0.01 µM, anchor plate), 0.764; with Luminespib (0.02 µM), 0.622; with Luminespib (0.06325 µM), 0.362; in the assay with Luminespib (0.2 µM), 0.323.
On to NCI-H1793, for which the relative viability with Lenalidomide (0.253 µM) came to 0.962; with Lenalidomide (2.53 µM), 1.08; with Lenalidomide (8 µM) it was 0.37; with Nilotinib (0.001 µM), 0.91; in the assay with Nilotinib (0.003162 µM), 1.22; with Nilotinib (0.01 µM) it was 1.28. Moreover, the relative viability with Nilotinib (0.03162 µM) was 0.623; with Nilotinib (0.1 µM), 0.204; with MIM1 (0.2 µM), 0.874; in the assay with MIM1 (2 µM), 0.838; in the assay with MIM1 (6.325 µM) it was 0.809; in the assay with MIM1 (20 µM), 0.858. The relative viability amounted to 0.909 with Saracatinib (0.02 µM); 0.674 with Saracatinib (0.2 µM); 1.01 with Saracatinib (0.6325 µM); 0.666 in the assay with Saracatinib (2 µM); 0.775 in the assay with Luminespib (0.002 µM); 0.84 in the assay with Luminespib (0.006325 µM). Further, the relative viability in the assay with Luminespib (0.01 µM, anchor plate) came out at 0.192; in the assay with Luminespib (0.02 µM), 0.248; in the assay with Luminespib (0.06325 µM), 0.137; with Luminespib (0.2 µM), 0.15.
For the cell line NCI-H1563, the relative viability in the assay with Lenalidomide (0.253 µM) was determined as 0.932; with Lenalidomide (0.8 µM), 1.01; in the assay with Lenalidomide (2.53 µM), 1.11; with Lenalidomide (8 µM), 0.846; with Nilotinib (0.001 µM), 0.956; with Nilotinib (0.003162 µM) it was 1.03. Besides, the relative viability came to 0.971 with Nilotinib (0.01 µM); 0.869 with Nilotinib (0.03162 µM); 1.02 in the assay with Nilotinib (0.1 µM); 1.09 in the assay with MIM1 (0.2 µM); 1.02 with MIM1 (0.6325 µM); 0.993 with MIM1 (2 µM). In addition, the relative viability with MIM1 (6.325 µM) worked out at 0.903; in the assay with MIM1 (20 µM), 0.542; in the assay with Saracatinib (0.02 µM), 1.04; in the assay with Saracatinib (0.2 µM) it was 0.894; with Saracatinib (0.6325 µM), 0.804; with Saracatinib (2 µM) it was 0.728. The relative viability is 0.984 in the assay with Luminespib (0.002 µM); 0.985 with Luminespib (0.006325 µM); 0.508 with Luminespib (0.01 µM, anchor plate); 0.794 with Luminespib (0.02 µM); 0.503 in the assay with Luminespib (0.06325 µM); 0.49 with Luminespib (0.2 µM).
For NCI-H1993, the relative viability was found to be 0.941 with Lenalidomide (0.253 µM); 0.784 with Lenalidomide (0.8 µM); 1.05 with Lenalidomide (2.53 µM); 0.642 with Lenalidomide (8 µM); 0.912 with Nilotinib (0.001 µM); 0.95 with Nilotinib (0.003162 µM). The relative viability with Nilotinib (0.01 µM) was found to be 0.899; with Nilotinib (0.03162 µM), 0.901; in the assay with Nilotinib (0.1 µM) it was 0.613; in the assay with MIM1 (0.2 µM), 0.929; in the assay with MIM1 (0.6325 µM), 0.944; with MIM1 (2 µM), 0.907. The relative viability came out at 0.678 with MIM1 (6.325 µM); 0.561 in the assay with MIM1 (20 µM); 0.951 with Saracatinib (0.02 µM); 0.8 with Saracatinib (0.2 µM); 0.457 with Saracatinib (0.6325 µM); 0.648 with Saracatinib (2 µM). In addition, the relative viability with Luminespib (0.002 µM) is 0.995; with Luminespib (0.006325 µM), 0.898; in the assay with Luminespib (0.01 µM, anchor plate), 0.875; with Luminespib (0.02 µM), 0.584; with Luminespib (0.06325 µM), 0.565; with Luminespib (0.2 µM), 0.415.
